In ChEMBL document CHEMBL5665443, “Enzyme Inhibitor Single Concentration assay results for EUbOPEN Chemogenomics Library” (2024):

Columns and labels:
[1] = molecular target: Methyl-CpG-binding domain protein 4 (Homo sapiens) (UniProt O95243); conditions: Hit No;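 further: MBD4 activity read as fluorescence at 594 nm from cleavage and release of a quenched duplex DNA oligonucleotide, with APE1 coupled to incise the strand and raise turnover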
Description: Inhibition of MBD4 by quantifying inhibition of MBD4-mediated cleavage and dissociation of quenched duplex DNA oligonucleotides, measured as fluorescence at 594 nm. To generate a functional strand incision and increase turn-over this assay is coupled to APE1.

[2] = molecular target: DNA-3-methyladenine glycosylase (Homo sapiens) (UniProt P29372); conditions: Compound Concentration 10.0 uM;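 further: enzyme assay where MPG cuts a quenched duplex DNA oligonucleotide probe, paired with APE1 for strand incision and turnover, read as fluorescence at 594 nm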
Description: Inhibition of MPG by quantifying inhibition of MPG-mediated cleavage and dissociation of quenched duplex DNA oligonucleotides, measured as fluorescence at 594 nm. To generate a functional strand incision and increase turn-over this assay is coupled to APE1.

[3] = molecular target: T1, Adenine DNA glycosylase (Homo sapiens) (UniProt Q9UIF7); conditions: Hit No;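 further: human MUTYH activity read as 594 nm fluorescence from cleavage and release of a quenched DNA duplex, coupled with APE1 for strand incision, lower signal meaning inhibition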
T1 sequence (whole entry): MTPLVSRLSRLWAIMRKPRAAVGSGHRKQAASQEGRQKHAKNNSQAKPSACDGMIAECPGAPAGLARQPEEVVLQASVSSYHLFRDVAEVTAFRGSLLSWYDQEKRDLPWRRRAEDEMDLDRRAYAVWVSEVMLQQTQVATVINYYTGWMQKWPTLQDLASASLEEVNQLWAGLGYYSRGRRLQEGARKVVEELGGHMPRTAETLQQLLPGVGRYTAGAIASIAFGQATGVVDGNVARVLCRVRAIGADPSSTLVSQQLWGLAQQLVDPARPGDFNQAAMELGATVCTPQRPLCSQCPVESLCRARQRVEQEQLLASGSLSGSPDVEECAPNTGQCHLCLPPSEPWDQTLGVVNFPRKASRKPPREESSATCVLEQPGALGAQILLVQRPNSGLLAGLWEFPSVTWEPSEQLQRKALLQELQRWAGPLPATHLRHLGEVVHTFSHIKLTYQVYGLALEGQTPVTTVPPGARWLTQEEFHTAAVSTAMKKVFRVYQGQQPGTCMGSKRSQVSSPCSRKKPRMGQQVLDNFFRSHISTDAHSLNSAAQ
Description: Inhibition of MUTYH by quantifying inhibition of MUTYH-mediated cleavage and dissociation of quenched duplex DNA oligonucleotides, measured as fluorescence at 594 nm. To generate a functional strand incision and increase turn-over this assay is coupled to APE1.

[4] = molecular target: Endonuclease 8-like 1 (Homo sapiens) (UniProt Q96FI4);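 further: fluorescence at 594 nm from quenched duplex DNA oligonucleotides released by NEIL1 cleavage and strand separation, reported as reduction of this enzyme activity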
Description: Inhibition of NEIL1 by quantifying inhibition of NEIL1-mediated cleavage and dissociation of quenched duplex DNA oligonucleotides, measured as fluorescence at 594 nm.

[5] = molecular target: T2, Endonuclease 8-like 2 (Homo sapiens) (UniProt Q969S2); conditions: Compound Concentration 10.0 uM;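 further: fluorescence at 594 nm reports NEIL2 cutting and release of a quenched double-stranded DNA oligo substrate, reduced signal read as inhibition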
T2 sequence (whole entry): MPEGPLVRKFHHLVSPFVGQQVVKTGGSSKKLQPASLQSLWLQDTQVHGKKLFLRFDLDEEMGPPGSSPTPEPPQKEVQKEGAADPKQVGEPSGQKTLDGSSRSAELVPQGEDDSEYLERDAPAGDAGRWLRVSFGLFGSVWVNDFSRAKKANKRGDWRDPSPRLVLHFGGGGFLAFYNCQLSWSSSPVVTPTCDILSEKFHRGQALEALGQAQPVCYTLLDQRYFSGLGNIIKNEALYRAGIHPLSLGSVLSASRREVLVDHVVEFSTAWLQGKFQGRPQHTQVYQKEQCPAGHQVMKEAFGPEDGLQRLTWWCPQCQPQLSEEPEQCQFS
Description: Inhibition of NEIL2 by quantifying inhibition of NEIL2-mediated cleavage and dissociation of quenched duplex DNA oligonucleotides, measured as fluorescence at 594 nm.

[6] = molecular target: T3, Endonuclease III-like protein 1 (Homo sapiens) (UniProt P78549);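 further: enzyme assay tracking NTHL1 cutting and release of a quenched double-stranded DNA oligo substrate, read as fluorescence at 594 nm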
T3 sequence (whole entry): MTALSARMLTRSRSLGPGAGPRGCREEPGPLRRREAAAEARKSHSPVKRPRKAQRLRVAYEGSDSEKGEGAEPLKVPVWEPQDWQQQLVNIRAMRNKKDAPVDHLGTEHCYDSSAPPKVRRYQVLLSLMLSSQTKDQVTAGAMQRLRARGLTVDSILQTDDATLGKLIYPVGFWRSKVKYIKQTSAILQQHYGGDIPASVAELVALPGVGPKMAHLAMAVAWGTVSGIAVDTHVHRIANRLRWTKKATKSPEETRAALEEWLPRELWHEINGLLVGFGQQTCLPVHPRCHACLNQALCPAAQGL
Description: Inhibition of NTHL1 by quantifying inhibition of NTHL1-mediated cleavage and dissociation of quenched duplex DNA oligonucleotides, measured as fluorescence at 594 nm.

[7] = molecular target: N-glycosylase/DNA lyase (Homo sapiens) (UniProt O15527);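 further: OGG1 cleavage of a quenched duplex DNA oligonucleotide, coupled to APE1 for strand incision, read as fluorescence at 594 nm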
Description: Inhibition of OGG1 by quantifying inhibition of OGG1-mediated cleavage and dissociation of quenched duplex DNA oligonucleotides, measured as fluorescence at 594 nm. To generate a functional strand incision and increase turn-over this assay is coupled to APE1.

[8] = molecular target: T4, Single-strand selective monofunctional uracil DNA glycosylase (Homo sapiens) (UniProt Q53HV7);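 further: enzymatic SMUG1 assay coupled with APE1, reading fluorescence at 594 nm released when a quenched double-stranded DNA oligonucleotide substrate is cleaved and separated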
T4 sequence (whole entry): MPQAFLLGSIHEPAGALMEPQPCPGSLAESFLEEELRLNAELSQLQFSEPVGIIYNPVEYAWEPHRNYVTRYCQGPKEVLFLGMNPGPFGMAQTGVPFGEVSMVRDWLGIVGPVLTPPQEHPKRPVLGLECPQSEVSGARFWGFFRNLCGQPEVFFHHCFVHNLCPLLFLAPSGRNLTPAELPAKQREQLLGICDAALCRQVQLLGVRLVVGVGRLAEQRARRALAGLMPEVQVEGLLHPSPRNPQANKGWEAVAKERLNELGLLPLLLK
Description: Inhibition of SMUG1 by quantifying inhibition of SMUG1-mediated cleavage and dissociation of quenched duplex DNA oligonucleotides, measured as fluorescence at 594 nm. To generate a functional strand incision and increase turn-over this assay is coupled to APE1.

[9] = molecular target: G/T mismatch-specific thymine DNA glycosylase (Homo sapiens) (UniProt Q13569);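 further: human TDG cleavage of quenched duplex DNA oligonucleotides coupled to APE1, strand release read as fluorescence at 594 nm, inhibition of TDG activity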
Description: Inhibition of TDG by quantifying inhibition of TDG-mediated cleavage and dissociation of quenched duplex DNA oligonucleotides, measured as fluorescence at 594 nm. To generate a functional strand incision and increase turn-over this assay is coupled to APE1.

[10] = molecular target: Uracil-DNA glycosylase (Homo sapiens) (UniProt P13051); conditions: Hit No;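 further: UNG excision on a quenched double-stranded DNA oligo probe, with APE1 added for strand incision and turnover, read as fluorescence at 594 nm as strands separate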
Description: Inhibition of UNG by quantifying inhibition of UNG-mediated cleavage and dissociation of quenched duplex DNA oligonucleotides, measured as fluorescence at 594 nm. To generate a functional strand incision and increase turn-over this assay is coupled to APE1.

[11] = Compound Concentration 10.0 uM, Hit No
[12] = Compound Concentration 1.0 uM, Hit No
[13] = Compound Concentration 10.0 uM, Hit Yes

Methyl-CpG-binding domain protein 4 (Homo sapiens), sequence (O95243 whole entry, the tested form may be a part): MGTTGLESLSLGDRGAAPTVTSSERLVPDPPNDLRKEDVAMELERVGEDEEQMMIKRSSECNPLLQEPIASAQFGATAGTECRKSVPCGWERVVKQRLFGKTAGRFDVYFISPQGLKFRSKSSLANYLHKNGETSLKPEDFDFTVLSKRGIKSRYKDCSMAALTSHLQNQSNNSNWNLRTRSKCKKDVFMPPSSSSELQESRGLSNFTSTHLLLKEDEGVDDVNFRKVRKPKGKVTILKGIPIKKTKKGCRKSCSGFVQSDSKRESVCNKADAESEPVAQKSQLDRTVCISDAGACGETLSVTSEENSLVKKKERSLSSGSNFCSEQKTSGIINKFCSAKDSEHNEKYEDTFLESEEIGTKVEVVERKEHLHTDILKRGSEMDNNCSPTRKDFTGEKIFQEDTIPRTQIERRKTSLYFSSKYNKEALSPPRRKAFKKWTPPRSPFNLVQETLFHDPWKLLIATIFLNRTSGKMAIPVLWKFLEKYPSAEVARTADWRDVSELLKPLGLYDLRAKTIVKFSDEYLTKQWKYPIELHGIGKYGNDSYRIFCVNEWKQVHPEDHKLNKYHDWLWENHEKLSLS
Uracil-DNA glycosylase (Homo sapiens), sequence (P13051 whole entry): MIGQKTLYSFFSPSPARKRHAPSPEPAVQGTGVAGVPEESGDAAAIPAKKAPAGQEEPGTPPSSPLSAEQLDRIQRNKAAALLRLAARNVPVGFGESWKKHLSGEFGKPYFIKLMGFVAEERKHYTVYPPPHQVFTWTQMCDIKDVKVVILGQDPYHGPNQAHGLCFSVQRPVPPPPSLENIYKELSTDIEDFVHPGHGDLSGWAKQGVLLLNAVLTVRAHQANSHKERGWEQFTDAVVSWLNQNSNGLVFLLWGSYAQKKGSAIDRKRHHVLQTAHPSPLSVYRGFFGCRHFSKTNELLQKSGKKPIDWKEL
Endonuclease 8-like 1 (Homo sapiens), sequence (Q96FI4 whole entry): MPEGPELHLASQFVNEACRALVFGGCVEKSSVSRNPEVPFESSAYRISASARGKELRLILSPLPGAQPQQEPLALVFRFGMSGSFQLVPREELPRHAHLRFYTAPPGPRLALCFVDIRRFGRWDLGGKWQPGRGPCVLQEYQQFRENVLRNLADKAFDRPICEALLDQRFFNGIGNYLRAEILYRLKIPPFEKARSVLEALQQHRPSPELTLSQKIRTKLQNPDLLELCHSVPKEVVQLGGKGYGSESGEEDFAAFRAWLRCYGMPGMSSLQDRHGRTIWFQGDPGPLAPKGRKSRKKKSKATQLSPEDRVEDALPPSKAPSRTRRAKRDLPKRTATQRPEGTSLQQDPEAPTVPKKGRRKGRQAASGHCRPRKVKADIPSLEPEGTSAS
G/T mismatch-specific thymine DNA glycosylase (Homo sapiens), sequence (Q13569 whole entry): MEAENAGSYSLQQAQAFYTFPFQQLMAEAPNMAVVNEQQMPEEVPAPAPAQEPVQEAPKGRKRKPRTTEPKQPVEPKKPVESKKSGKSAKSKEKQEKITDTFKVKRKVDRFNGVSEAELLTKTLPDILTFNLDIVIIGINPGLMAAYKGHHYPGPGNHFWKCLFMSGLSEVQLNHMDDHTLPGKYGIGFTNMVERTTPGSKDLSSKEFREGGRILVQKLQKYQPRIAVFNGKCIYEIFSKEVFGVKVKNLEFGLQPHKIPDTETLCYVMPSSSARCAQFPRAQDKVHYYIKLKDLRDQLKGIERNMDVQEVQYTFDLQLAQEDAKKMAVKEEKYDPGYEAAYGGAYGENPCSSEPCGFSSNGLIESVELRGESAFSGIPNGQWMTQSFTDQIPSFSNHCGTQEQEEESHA
N-glycosylase/DNA lyase (Homo sapiens), sequence (O15527 whole entry): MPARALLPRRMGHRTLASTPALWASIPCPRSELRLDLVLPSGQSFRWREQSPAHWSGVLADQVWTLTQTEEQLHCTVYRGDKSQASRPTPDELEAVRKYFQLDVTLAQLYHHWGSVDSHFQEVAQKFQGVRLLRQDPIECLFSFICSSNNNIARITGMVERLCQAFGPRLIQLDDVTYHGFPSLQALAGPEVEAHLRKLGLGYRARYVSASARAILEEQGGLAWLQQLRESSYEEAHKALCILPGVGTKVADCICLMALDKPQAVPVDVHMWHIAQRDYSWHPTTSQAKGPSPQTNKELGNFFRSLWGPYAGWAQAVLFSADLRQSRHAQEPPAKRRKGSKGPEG
DNA-3-methyladenine glycosylase (Homo sapiens), sequence (P29372 whole entry): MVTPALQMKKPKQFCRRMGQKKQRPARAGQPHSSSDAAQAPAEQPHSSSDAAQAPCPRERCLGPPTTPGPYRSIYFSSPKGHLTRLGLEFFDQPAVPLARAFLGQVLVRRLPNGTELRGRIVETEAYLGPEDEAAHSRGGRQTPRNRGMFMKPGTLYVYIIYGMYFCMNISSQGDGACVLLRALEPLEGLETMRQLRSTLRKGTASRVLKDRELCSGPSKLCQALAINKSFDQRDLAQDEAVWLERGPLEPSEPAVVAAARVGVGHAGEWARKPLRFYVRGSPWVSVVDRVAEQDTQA

Row | Structure (SMILES) | inhibition ([1]; Compound Concentration 10.0 uM) [%] | inhibition ([2]; Hit No) [%] | inhibition ([3]; Compound Concentration 10.0 uM) [%] | inhibition [4, 11] [%] | inhibition ([5]; Hit No) [%] | inhibition [6, 11] [%] | inhibition [7, 11] [%] | inhibition [8, 11] [%] | inhibition [9, 11] [%] | inhibition ([10]; Compound Concentration 10.0 uM) [%] | further results
1 | N/C(=N\C(=O)c1nc(Cl)c(N)nc1N)NCc1ccccc1 | 41.7 | 25.3 | 36.7 | 9.94 | 15.2 | 15.4 | 16.3 | 7.5 | 32.7 | 4.68 | 
2 | Cn1nc(C(=O)NCc2ccc(C(=O)O)cc2)cc1-c1ccc2[nH]ccc2c1 | 70.9 | 115 | -5.73 | 1.38 | -4.83 | -3.92 | 0.23 | 8.36 | 56.9 | 0.276 | 
3 | CCCC(=O)N[C@@H](Cc1ccc(O)cc1)C(=O)NCCCCCCCNCCCCN | 20.4 | 2.86 | -4.41 | 4.46 | -1.62 | -3.56 | -0.213 | -0.749 | 12.1 | -4.14 | 
4 | N#Cc1c(O)nc(SCc2cccc(F)c2F)nc1C1CC1 | 31 | 5.35 | 43.4 | -3.76 | 6.5 | 17.3 | 21.3 | 14.3 | 26.8 | -3.9 | 
5 | Oc1cc2c(cc1O)CN(C(=S)NCCc1ccc(Cl)cc1)CCC2 | 39.2 | 26.6 | 73.8 | 12.2 | 6.53 | 3.04 | -1.56 | 1.46 | 46.1 | 3.52 | 
6 | CCc1nc2c(o1)CC(c1ccc(C)cc1C)CC2=O (stereo not drawn) | 17.2 | 23.6 | -1.84 | 6.08 | 6.53 | -4.39 | -9.46 | 5.18 | 16.4 | 0.136 | 
7 | O=C(O)C[C@H]1CCc2c1[nH]c1ccc(OCc3ccc(C4CCCC4)c(C(F)(F)F)c3)cc21 | 47.5 | 18.9 | 9.75 | -9.84 | 0.515 | 36.4 | 34.1 | -8.03 | 45 | -6.26 | 
8 | N[C@](CC1c2ccccc2Oc2ccccc21)(C(=O)O)[C@H]1C[C@@H]1C(=O)O | 16.1 | 10.3 | 12.3 | 0.898 | 0.414 | 8.82 | -5.15 | -0.127 | 24.2 | -3.16 | 
9 | COc1cccc2c1c(NS(=O)(=O)c1ccc(Cl)s1)nn2Cc1cccc(CNC(=O)C(C)(C)O)c1 | 19.3 | -4.44 | 7.32 | -1.47 | 1.18 | 8 | -5.21 | -4.59 | 0.908 | -8.69 | 
10 | CCCCCC(O)/C=C/[C@H]1C(=O)CC(O)C1C/C=C\CCCC(=O)O (stereo partly drawn) | 33.6 | 15.9 | 12.9 | 5.49 |  | 12.9 | 8.62 | -9.9 | 32 | -3.89 | inhibition ([5]; Hit Yes): 41.2%
11 | Cn1cc(Cl)c2c(Oc3c(F)cc(Nc4cc(Cl)nc(N)n4)cc3F)ccnc21 | 64.2 | -1.23 | 40.4 | 4.86 | 2.57 | -1.29 | -9.66 | 27.1 | 53.4 | 11.7 | inhibition ([1]; Compound Concentration 1.0 uM): -4.8%; inhibition ([3]; Compound Concentration 1.0 uM): 1.46%; inhibition [4, 12]: -7.79%; inhibition [6, 12]: 8.46%; inhibition [7, 12]: -2.36%; inhibition [8, 12]: 17.9%; inhibition [9, 12]: 48.5%; inhibition ([10]; Compound Concentration 1.0 uM): 2.73%
12 | COC(=O)c1cc2c(cn1)[nH]c1ccccc12 | 8.08 | 11.4 | 41.5 | 5.05 | 22.6 | 2.22 | 0.163 | 2.02 | 11 | -4.88 | 
13 | NC(N)=Nc1nc(CSCC/C(N)=N/S(N)(=O)=O)cs1 | 6.83 | 11.5 | 21.8 | 9.58 | 17.5 | -2.47 | 2.35 | -5.17 | 13.5 | -4.9 | 
14 | CN1CCN(c2ccc(Nc3c4ccccc4nc4ccccc34)cc2)CC1 | 88.7 |  | 113 |  |  |  |  |  |  | 12.9 | inhibition ([2]; Hit Yes): 90.3%; inhibition [4, 13]: 65.5%; inhibition ([5]; Hit Yes): 90.9%; inhibition [6, 13]: 84.8%; inhibition [7, 13]: 84.8%; inhibition [8, 13]: 78.7%; inhibition [9, 13]: 73%
